This passage reports Activity results from ChEMBL document CHEMBL5136975, “NO-HDAC dual inhibitors” (Eur J Med Chem, 2022).

Common to all, as to format: functional
The test system of test [1] is SK-N-SH. Description: Antiproliferative activity against human SK-N-SH cells assessed as cellular metabolic activity at 1 mM incubated for 24 hrs by MTT assay. On the technique in general: Tetrazolium dyes change colour on reduction, which living cells bring about.
The test system of test [2] is IMR-32. Nature of the test: Antiproliferative activity against human IMR-32 cells assessed as cellular metabolic activity at 1 mM incubated for 24 hrs by resazurin assay.
The subject of test [3] is IMR-32. Description: Antiproliferative activity against human IMR-32 cells assessed as cellular metabolic activity at 1 mM incubated for 24 hrs by MTT assay.
For test [4], the system named is B104. Nature of the test: Antiproliferative activity against rat B104 cells assessed as cellular metabolic activity at 1 mM incubated for 24 hrs by MTT assay.
In test [5] the test system is SK-N-SH. Description: Antiproliferative activity against human SK-N-SH cells assessed as cellular metabolic activity at 1 mM incubated for 24 hrs by resazurin assay.
For test [6], the system named is B104. Description: Antiproliferative activity against rat B104 cells assessed as cellular metabolic activity at 1 mM incubated for 24 hrs by resazurin assay.

Turning to `N[C@@H](CCC(=O)N[C@@H](CSN=O)C(=O)NCC(=O)O)C(=O)O` [S-NITROSOGLUTATHIONE], the Activity in the test on SK-N-SH [1] is 16%; in the test with IMR-32 [2], 13%; in the test with IMR-32 [3], 14%; with B104 [4] it was 18%; in the test on SK-N-SH [5], 15%; in the test with B104 [6], 17%.
